Experimental data: patent publication US20100298141A1, “SUBSTITUTED PYRIDINE N-OXIDE HERBICIDES” (E. I. DU PONT DE NEMOURS AND COMPANY, priority 2007, published 2010)

Columns and labels:
[1] = test system: Surinam grass; test: Test C pre-/postemergence test; format: in vivo, Brachiaria decumbens; details: for Plant response rating, Surinam Grass: 31 g ai/ha, scale 0 to 100 (0 no effect, 100 complete control)
Summary of the method: (§1)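 Compounds in a non-phytotoxic solvent with surfactant applied preemergence to seeded pots and, at the same time, postemergence to plants 2–18 cm tall (1- to 4-leaf stage). Paddy tests: pots flooded to 3 cm, compound applied into the water, depth held throughout.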

[2] = test system: Goosegrass; test: Test C pre-/postemergence test; format: in vivo, Eleusin indica; details: for Plant response rating, Goosegrass: 31 g ai/ha, scale 0 to 100 (0 no effect, 100 complete control)
Summary of the method: as §1

[3] = test system: giant foxtail; test: Test C pre-/postemergence test; format: in vivo, Setaria faberii; details: for Plant response rating, Foxtail, Giant: 31 g ai/ha, scale 0 to 100 (0 no effect, 100 complete control)
Summary of the method: as §1

[4] = test system: umbrella sedge; test: Test C flooded paddy test; format: in vivo, Cyperus difformis; details: Flood
Summary of the method: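 Ratings were visual and made relative to untreated controls after 13 to 15 greenhouse days.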

[5] = test system: crabgrass; test: Test A pre-/postemergence greenhouse test; format: in vivo, Digitaria sanguinalis; details: for Plant response rating, Crabgrass, Large: 0 to 100 scale where 0 is no effect and 100 is complete control; for Crabgrass, Large plant response rating: 0 to 100 scale
Summary of the method: (§2)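 Visual injury ratings against untreated controls, taken roughly ten days after treatment in greenhouse. Plants were sprayed postemergence at one- to two-leaf stage (2–10 cm tall); at the same time, seeded loam/sand soil received a directed preemergence spray. Formulation: non-phytotoxic solvent mixture with surfactant.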

[6] = test system: common (oilseed) sunflower; test: Test C pre-/postemergence test; format: in vivo, Helianthus annuus; details: for Plant response rating, Sunflower: 31 g ai/ha, scale 0 to 100 (0 no effect, 100 complete control)
Summary of the method: as §1

[7] = test system: crabgrass; test: Test C pre-/postemergence test; format: in vivo, Digitaria sanguinalis; details: for Plant response rating, Crabgrass, Large: 31 g ai/ha, scale 0 to 100 (0 no effect, 100 complete control)
Summary of the method: as §1

[8] = test system: morningglory; test: Test C pre-/postemergence test; format: in vivo, Ipomoea coccinea; details: for Plant response rating, Morningglory: 31 g ai/ha, scale 0 to 100 (0 no effect, 100 complete control)
Summary of the method: as §1

[9] = test system: barnyardgrass; test: Test A pre-/postemergence greenhouse test; format: in vivo, Echinochloa crus-galli; details: for Plant response rating, Barnyardgrass: 0 to 100 scale where 0 is no effect and 100 is complete control; for Barnyardgrass plant response rating: 0 to 100 scale
Summary of the method: as §2

[10] = test system: pigweed; test: Test C pre-/postemergence test; format: in vivo, Amaranthus retroflexus; details: for Plant response rating, Pigweed: 31 g ai/ha, scale 0 to 100 (0 no effect, 100 complete control)
Summary of the method: as §1

[11] = test system: Italian ryegrass; test: Test C pre-/postemergence test; format: in vivo, Lolium multiflorum; details: for Plant response rating, Ryegrass, Italian: 31 g ai/ha, scale 0 to 100 (0 no effect, 100 complete control)
Summary of the method: as §1

[12] = test system: velvetleaf; test: Test C pre-/postemergence test; format: in vivo, Abutilon theophrasti; details: for Plant response rating, Velvetleaf: 31 g ai/ha, scale 0 to 100 (0 no effect, 100 complete control)
Summary of the method: as §1

[13] = test system: johnsongrass; test: Test C pre-/postemergence test; format: in vivo, Sorghum halepense; details: for Plant response rating, Johnsongrass: 31 g ai/ha, scale 0 to 100 (0 no effect, 100 complete control)
Summary of the method: as §1

[14] = test system: wheat; test: Test A pre-/postemergence greenhouse test; format: in vivo, Triticum aestivum; details: for Plant response rating, Wheat: 0 to 100 scale where 0 is no effect and 100 is complete control; for Wheat plant response rating: 0 to 100 scale
Summary of the method: as §2

[15] = test system: corn; test: Test C pre-/postemergence test; format: in vivo, Zea mays; details: for Plant response rating, Corn: 31 g ai/ha, scale 0 to 100 (0 no effect, 100 complete control)
Summary of the method: as §1

[16] = test system: corn; test: Test A pre-/postemergence greenhouse test; format: in vivo, Zea mays; details: for Plant response rating, Corn: 0 to 100 scale where 0 is no effect and 100 is complete control; for Corn plant response rating: 0 to 100 scale
Summary of the method: as §2

[17] = test system: eastern black nightshade; test: Test C pre-/postemergence test; format: in vivo, Solanum ptycanthum; details: for Plant response rating, Nightshade: 31 g ai/ha, scale 0 to 100 (0 no effect, 100 complete control)
Summary of the method: as §1

[18] = 62 g ai/ha, Preemergence, scale 0 to 100
[19] = 125 g ai/ha, preemergence, scale 0 (no effect) to 100 (complete control)
[20] = preemergence, 250 g ai/ha, scale 0 (no effect) to 100 (complete control)
[21] = 62 g ai/ha, scale 0 to 100 (0 no effect, 100 complete control)
[22] = 250 g ai/ha, scale 0 to 100, 0 no effect, 100 complete control, 13 to 15 days
[23] = Postemergence, 500 g ai/ha, 0 is no effect, 100 is complete control
[24] = Preemergence, 125 g ai/ha, 0 no effect, 100 complete control

C#CCOc1c(C[S+]([O-])c2cccc[n+]2[O-])c(C(F)(F)F)nn1C (stereo not drawn) [Compound 76]
95: Goosegrass plant response rating [2, 18] | Johnsongrass plant response rating [13, 18]
0: Plant response rating, Surinam Grass ([1]; Preemergence) | Plant response rating, Sedge, Umbrella [4, 21] | Plant response rating, Sunflower ([6]; Preemergence) | Plant response rating, Morningglory ([8]; Preemergence) | Plant response rating, Ryegrass, Italian ([11]; Preemergence) | Plant response rating, Velvetleaf ([12]; Preemergence) | Plant response rating, Corn ([15]; Preemergence) | Corn plant response rating [16, 24]
85: Surinam Grass plant response rating [1, 18] | Surinam Grass plant response rating [1, 19] | Crabgrass, Large plant response rating [7, 18] | Plant response rating, Crabgrass, Large ([7]; Preemergence) | Plant response rating, Johnsongrass ([13]; Preemergence) | Nightshade plant response rating [17, 18] | Plant response rating, Nightshade ([17]; Preemergence)
40: Plant response rating, Corn ([16]; Postemergence, 125 g ai/ha)
80: Plant response rating, Goosegrass ([2]; Preemergence) | Crabgrass, Large plant response rating [5, 24] | Barnyardgrass plant response rating [9, 23] | Barnyardgrass plant response rating [9, 24] | Pigweed plant response rating [10, 18] | Pigweed plant response rating [10, 19] | Corn plant response rating [15, 18] | Plant response rating, Corn ([16]; Preemergence, 500 g ai/ha)
35: Sunflower plant response rating [6, 18]
100: Surinam Grass plant response rating [1, 20] | Goosegrass plant response rating [2, 20] | Foxtail, Giant plant response rating [3, 19] | Foxtail, Giant plant response rating [3, 20] | Plant response rating, Sedge, Umbrella [4, 22] | Crabgrass, Large plant response rating [7, 20] | Morningglory plant response rating [8, 19] | Morningglory plant response rating [8, 20] | Plant response rating, Barnyardgrass ([9]; Preemergence, 500 g ai/ha) | Pigweed plant response rating [10, 20] | Ryegrass, Italian plant response rating [11, 20] | Velvetleaf plant response rating [12, 18] | Velvetleaf plant response rating [12, 19] | Velvetleaf plant response rating [12, 20] | Johnsongrass plant response rating [13, 19] | Johnsongrass plant response rating [13, 20] | Plant response rating, Wheat ([14]; Preemergence, 500 g ai/ha) | Corn plant response rating [15, 19] | Corn plant response rating [15, 20] | Nightshade plant response rating [17, 20]
60: Wheat plant response rating [14, 23] | Corn plant response rating [16, 23]
50: Plant response rating, Crabgrass, Large ([5]; Postemergence, 125 g ai/ha) | Sunflower plant response rating [6, 19] | Plant response rating, Pigweed ([10]; Preemergence) | Ryegrass, Italian plant response rating [11, 18]
20: Morningglory plant response rating [8, 18] | Plant response rating, Wheat ([14]; Postemergence, 125 g ai/ha) | Wheat plant response rating [14, 24]
90: Foxtail, Giant plant response rating [3, 18] | Crabgrass, Large plant response rating [5, 23] | Plant response rating, Crabgrass, Large ([5]; Preemergence, 500 g ai/ha) | Nightshade plant response rating [17, 19]
70: Sunflower plant response rating [6, 20] | Plant response rating, Barnyardgrass ([9]; Postemergence, 125 g ai/ha) | Ryegrass, Italian plant response rating [11, 19]
75: Plant response rating, Foxtail, Giant ([3]; Preemergence)
98: Goosegrass plant response rating [2, 19] | Crabgrass, Large plant response rating [7, 19]

Cn1nc(C(F)(F)F)c(CS(=O)(=O)c2cccc[n+]2[O-])c1OCC(F)F [Compound 81]
55: Plant response rating, Goosegrass ([2]; Preemergence)
80: Surinam Grass plant response rating [1, 18] | Plant response rating, Foxtail, Giant ([3]; Preemergence) | Crabgrass, Large plant response rating [5, 24] | Crabgrass, Large plant response rating [7, 18] | Barnyardgrass plant response rating [9, 23] | Plant response rating, Wheat ([14]; Preemergence, 500 g ai/ha)
75: Plant response rating, Sedge, Umbrella [4, 21] | Sunflower plant response rating [6, 20]
85: Morningglory plant response rating [8, 19] | Morningglory plant response rating [8, 20] | Velvetleaf plant response rating [12, 20]
30: Corn plant response rating [16, 24]
60: Plant response rating, Crabgrass, Large ([7]; Preemergence) | Plant response rating, Barnyardgrass ([9]; Postemergence, 125 g ai/ha) | Wheat plant response rating [14, 23]
10: Wheat plant response rating [14, 24]
45: Velvetleaf plant response rating [12, 18]
50: Plant response rating, Crabgrass, Large ([5]; Postemergence, 125 g ai/ha) | Sunflower plant response rating [6, 19] | Ryegrass, Italian plant response rating [11, 19] | Corn plant response rating [16, 23]
90: Barnyardgrass plant response rating [9, 24] | Nightshade plant response rating [17, 19] | Nightshade plant response rating [17, 20]
98: Goosegrass plant response rating [2, 18] | Foxtail, Giant plant response rating [3, 18] | Crabgrass, Large plant response rating [7, 19] | Crabgrass, Large plant response rating [7, 20] | Pigweed plant response rating [10, 18]
20: Plant response rating, Wheat ([14]; Postemergence, 125 g ai/ha) | Corn plant response rating [15, 18]
100: Surinam Grass plant response rating [1, 19] | Surinam Grass plant response rating [1, 20] | Goosegrass plant response rating [2, 19] | Goosegrass plant response rating [2, 20] | Foxtail, Giant plant response rating [3, 19] | Foxtail, Giant plant response rating [3, 20] | Plant response rating, Crabgrass, Large ([5]; Preemergence, 500 g ai/ha) | Plant response rating, Barnyardgrass ([9]; Preemergence, 500 g ai/ha) | Pigweed plant response rating [10, 19] | Pigweed plant response rating [10, 20] | Ryegrass, Italian plant response rating [11, 20] | Johnsongrass plant response rating [13, 19] | Johnsongrass plant response rating [13, 20] | Corn plant response rating [15, 19] | Corn plant response rating [15, 20]
0: Sunflower plant response rating [6, 18] | Plant response rating, Sunflower ([6]; Preemergence) | Morningglory plant response rating [8, 18] | Plant response rating, Morningglory ([8]; Preemergence) | Plant response rating, Pigweed ([10]; Preemergence) | Ryegrass, Italian plant response rating [11, 18] | Plant response rating, Ryegrass, Italian ([11]; Preemergence) | Plant response rating, Velvetleaf ([12]; Preemergence) | Plant response rating, Corn ([15]; Preemergence) | Plant response rating, Corn ([16]; Postemergence, 125 g ai/ha) | Plant response rating, Nightshade ([17]; Preemergence)
70: Plant response rating, Surinam Grass ([1]; Preemergence) | Crabgrass, Large plant response rating [5, 23] | Velvetleaf plant response rating [12, 19] | Plant response rating, Corn ([16]; Preemergence, 500 g ai/ha) | Nightshade plant response rating [17, 18]
95: Plant response rating, Sedge, Umbrella [4, 22] | Johnsongrass plant response rating [13, 18] | Plant response rating, Johnsongrass ([13]; Preemergence)
